Patent US20080064702A1, “Use of folates for the prevention and treatment of vascular diseases” (priority 2006, published 2008)
“Also recorded” adds a separate entry of the source. Where two headings read alike, the source gives them in different places.

Columns and labels:
[1] = system: saphenous veins and internal mammary arteries; conditions: IMA, 45 min ex vivo with 1 μM 5-MTHF, vs control
Description: (§1) Vessel Harvesting and Ex Vivo Studies. Samples of SV (n=38) and IMA (n=46) from a total of 61 patients, were harvested during CABG operation, as previously described (Channon K M, Trends Cardiovasc Med 2004; 14:323-327; Guzik T J et al., Circulation 2002; 105:1656-1662). Vessel segments were transferred to the laboratory within 30 minutes, in ice cold Krebs-Henseleit buffer. Segments of SV and IMA were incubated with 5-MTHF (0-100 μM) in Krebs-Henseleit buffer for 45 minutes prior to assays of endothelial function, superoxide/peroxynitrite production, radio-labelled arginine/citrulline conversion, western blotting or tissue 5-MTHF and biopterin levels.
Determination of Biopterin Levels. Biopterin levels in human vessels were determined by HPLC, as previously described (Alp N J et al, J Clin Invest. 2003; 112:725) and expressed as pmol/g of tissue. To examine the effect of 5-MTHF on peroxynitrite-induced oxidation of BH4, SIN-1 (2 μM) was used to oxidize BH4 (0.1 μM) in the presence or absence of 5-MTHF (1 μM) at 37° C. for 14 minutes (Milstien S and Katusic Z. Biochem Biophys Res Commun. 1999; 263:681).

[2] = 0.13 mg/kg i.v.; for plasma concentration: preliminary studies
Description: (§5) Patients (n=56) undergoing CABG participated in a double-blind placebo controlled study, where they received an intravenous infusion of either 5-MTHF (Merck Eprova, Switzerland) or placebo, administered before the CABG. […] Samples 5 of SV and IMA were harvested ˜45 minutes after the infusion of 5-MTHF (mean time of harvesting 45.7±2.9 minutes after infusion), and assayed for NO-mediated vasomotor function, vascular superoxide production, tissue 5-MTHF and biopterin levels, as described below.
(§6) Blood samples were collected prior to administration of 5-MTHF or placebo, and at the time of vessel harvesting. […] Plasma and tissue levels of 5-MTHF were determined by high performance liquid chromatography (HPLC), as previously described (Leeming R J et al, Metabolism. 1990; 39:902).

[3] = system: saphenous veins and internal mammary arteries; conditions: ca. 45 min after 0.13 mg/kg i.v., vs placebo
Description: (§2) In Vivo Studies. Patients (n=56) undergoing CABG participated in a double-blind placebo controlled study, where they received an intravenous infusion of either 5-MTHF (Merck Eprova, Switzerland) or placebo, administered before the CABG.
(§3) Superoxide/Peroxynitrite Measurements. Vascular superoxide production was measured from fresh human vessels using lucigenin (5 μM)-enhanced chemiluminescence as previously described (Skatchkov M P et al, Biochem Biophys Res Commun. 1999; 254:319). Samples of SV and IMA from the same patient were opened longitudinally to expose the endothelial surface and then equilibrated for 20 minutes in oxygenated (95% O2/5% CO2) Krebs-HEPES buffer (2 mL, pH=7.4) at 37° C. 14. NOS-derived superoxide was measured by adding L-NAME (100 μM) in the equilibrating buffer, and by calculating the difference in superoxide signal compared with basal conditions. Vascular peroxynitrite was determined using luminol (100 μM) instead of lucigenin, and by subtracting the remaining signal after adding the specific peroxynitrite scavenger uric acid (1 mM), as previously described (Laursen J B et al, Circulation. 2001; 103:1282).

[4] = Superoxide scavenging assay, xanthine/xanthine oxidase system; type: biochemical
Description: Superoxide and Peroxynitrite Scavenging Assays. The direct superoxide scavenging effect of 5-MTHF was evaluated with the use of xanthine/xanthine oxidase system. Superoxide production was induced by adding xanthine oxidase ([…]/mL) in Krebs HEPES buffer (2 mL, pH=7.4) at 37° C., containing xanthine (0.133 mM) and lucigenin (5 μM), in the presence of 5-MTHF (0-100 μM) or equal concentrations of ascorbic acid as positive control. Peroxynitrite production was induced by adding 3-morpholinosydnonimine (SIN-1, 1 μM) in Krebs HEPES buffer (2 mL, pH=7.4) at 37° C. containing luminol (100 μM), in the presence of different concentrations of 5-MTHF (0-100 μM) or equal concentrations of uric acid as positive control as previously described (Kuzkaya N et al, J Biol Chem. 2003; 278:22546). The scavenging effects of 5-MTHF, vitamin C or uric acid were calculated as the percent inhibition of chemiluminescence compared with control.

[5] = ~45 min after 0.13 mg/kg i.v.
Description: as §5, §6

[6] = system: saphenous veins and internal mammary arteries; conditions: SV and IMA, higher 5-MTHF concentrations (10, 100 μM) compared with 1 μM
Description: as §1
as §3, with “Samples of SV and IMA from the same patient were opened longitudinally to expose the endothelial surface and then equilibrated for 20 minutes in oxygenated (95% O2/5% CO2) Krebs-HEPES buffer (2 mL, pH=7.4) at 37° C. 14.” left out

[7] = 45 minutes after infusion of 5-MTHF; from 11.0±0.62 before
Excerpt: as §2

vascular endothelium = conditions: vessels from 5-MTHF-treated patients
Description: as §2
Oxidative Fluorescent Microtopography. In situ superoxide production was determined in vessel cryosections with the oxidative fluorescent dye dihydroethidium (DHE) (Bendall J K et al, Circ Res. 2005; 97:864). Paired cryosections ([…]) from the same vessel were incubated with DHE (2 μmol/L) in PBS, with or without L-NAME (100 μM). Fluorescence images (x40, Zeiss LSM 510 META laser 6 scanning confocal microscope) were obtained from each vessel quadrant, incorporating the luminal side of the vessel to quantify endothelial cell fluorescence. In each case, segments of vessel rings (with and without L-NAME) were analyzed in parallel with identical imaging parameters. DHE image analysis was carried out in a blinded fashion, and by two independent investigators, by using Image-Pro Plus software (Media Cybernetics).

saphenous veins [8] = system: saphenous veins
Description: as §2
(§4) Vasomotor Studies. Endothelium-dependent and endothelium-independent dilatation were assessed using isometric tension studies, as previously described (Guzik T J et al, Circ Res. 2000; 86:e85). Vessel rings were equilibrated and passively pre-tensioned to 3 g, an optimal resting tension that was determined in baseline studies of contractile response to KCl. Following precontraction with phenylephrine (3×10^−6M), vasomotor responses to the endothelium-mediated agonists acetylcholine (ACh, 10^−9M to 10^−5M) and bradykinin (BK, 10^−9 M to 10^−5M), were quantified in 4 equally sized segments from the same vessel. In the ex vivo experiments, vasomotor responses were repeated after incubation for 45 minutes with 0 (control), 1, 10 or 100 μM 5-MTHF, added to the organ bath chambers. Finally, relaxations to the NO donor sodium nitroprusside (SNP, 10^−10M to 10^−6M), were evaluated in the presence of the NOS inhibitor NG-nitro-L-arginine methyl ester (L-NAME; 100 μM).

[9] = Peroxynitrite scavenging assay, SIN-1 system with luminol; type: biochemical; conditions: SIN-1 1 μM; for direct peroxynitrite scavenging effect: concentrations as low as 1 μM, 5-MTHF and uric acid at equal concentrations
Description: Superoxide and Peroxynitrite Scavenging Assays. The direct superoxide scavenging effect of 5-MTHF was evaluated with the use of xanthine/xanthine oxidase system. […] The scavenging effects of 5-MTHF, vitamin C or uric acid were calculated as the percent inhibition of chemiluminescence compared with control.

saphenous veins [10] = system: saphenous veins; remark: listed apart in the source
Description: as §1, §4

[11] = SV, 45 min
Description: Plasma and tissue levels of 5-MTHF were determined by high performance liquid chromatography (HPLC), as previously described (Leeming R J et al, Metabolism. 1990; 39:902).

eNOS = eNOS (Homo sapiens, UniProt P29474); conditions: IMA, 5-MTHF 1 μM for 45 minutes; paired control 0.14±0.02%/g
eNOS, sequence (P29474 2-1203 limits assumed): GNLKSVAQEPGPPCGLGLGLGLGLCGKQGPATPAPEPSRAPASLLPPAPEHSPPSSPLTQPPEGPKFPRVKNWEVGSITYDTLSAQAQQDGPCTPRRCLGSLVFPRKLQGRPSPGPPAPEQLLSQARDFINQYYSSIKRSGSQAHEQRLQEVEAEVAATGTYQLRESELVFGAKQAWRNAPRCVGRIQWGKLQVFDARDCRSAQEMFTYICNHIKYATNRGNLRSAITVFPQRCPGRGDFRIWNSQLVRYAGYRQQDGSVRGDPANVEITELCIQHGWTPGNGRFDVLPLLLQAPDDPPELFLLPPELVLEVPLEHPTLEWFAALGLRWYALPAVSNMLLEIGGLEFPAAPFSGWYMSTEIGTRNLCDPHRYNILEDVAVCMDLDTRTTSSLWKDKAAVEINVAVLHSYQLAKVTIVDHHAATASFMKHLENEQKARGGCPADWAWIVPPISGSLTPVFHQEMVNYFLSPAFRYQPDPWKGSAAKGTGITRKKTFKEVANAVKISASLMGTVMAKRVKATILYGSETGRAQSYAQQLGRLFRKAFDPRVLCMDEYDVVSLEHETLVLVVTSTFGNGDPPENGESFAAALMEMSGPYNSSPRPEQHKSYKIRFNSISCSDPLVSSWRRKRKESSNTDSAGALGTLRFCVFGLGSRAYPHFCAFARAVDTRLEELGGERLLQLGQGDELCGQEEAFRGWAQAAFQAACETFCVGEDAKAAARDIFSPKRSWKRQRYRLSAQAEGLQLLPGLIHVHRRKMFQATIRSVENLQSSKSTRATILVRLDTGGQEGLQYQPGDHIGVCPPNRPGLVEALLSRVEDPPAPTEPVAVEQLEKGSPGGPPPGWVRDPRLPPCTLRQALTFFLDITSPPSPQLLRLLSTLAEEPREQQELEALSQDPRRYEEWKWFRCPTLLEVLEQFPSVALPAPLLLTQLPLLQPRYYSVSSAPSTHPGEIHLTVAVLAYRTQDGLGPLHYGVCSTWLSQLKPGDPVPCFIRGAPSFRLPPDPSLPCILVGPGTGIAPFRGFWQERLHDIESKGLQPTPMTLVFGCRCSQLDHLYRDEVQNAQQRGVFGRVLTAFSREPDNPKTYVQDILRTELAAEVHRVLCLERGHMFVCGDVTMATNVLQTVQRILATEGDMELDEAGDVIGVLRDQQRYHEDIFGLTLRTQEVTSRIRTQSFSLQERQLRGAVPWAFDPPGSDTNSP
Description: as §1

[12] = SV segments ~45 min after 0.13 mg/kg i.v., vs placebo
[13] = 5-MTHF 10 or 100 μM compared with 1 μM

## CN1c2c(nc(N)[nH]c2=O)NCC1CNc1ccc(C(=O)N[C@@H](CCC(=O)O)C(=O)O)cc1 (stereo partly shown) [5-MTHF, 5-methyltetrahydrofolate]
[1]
  BH4/tBio ratio: increased
  vascular BH4: increased
[2]; 45 minutes after infusion
  plasma concentration: 1000 to 2000 nM
[2]; at the time of vessel harvesting (~45 min), 5-MTHF-treated group
  plasma 5-MTHF levels: 2.28 ± 0.21 µM
[2]; immediately after administration
  plasma concentration: 2000 to 3000 nM
[3]; IMA
  vascular superoxide: significantly lower
[3]; SV
  vascular superoxide: significantly lower
[4]; low concentrations (1-10 μM)
  effect on measurable superoxide: no detectable effect
[4]; only at concentrations >10 μM (FIG. 5A)
  superoxide scavenging effect: weak superoxide scavenging effect
[4]; very high concentrations (100 μM)
  superoxide scavenging: only modest superoxide scavenging
[5]; IMA, placebo 1.54±0.38
  tissue 5-MTHF levels: 12.7 ± 2.58 nmol/g
[5]; SV, placebo 1.19±0.25
  tissue 5-MTHF levels: 9.35 ± 1.72 nmol/g
[6]
  vascular peroxynitrite production: no further reductions
  vascular superoxide production: no further reductions
[7]
  plasma tHcy: 9.42 ± 0.46 µmol/L
Vascular endothelium
  DHE fluorescence in other regions of the vessel wall: unaffected
Saphenous veins [8]; 5-MTHF-treated group, placebo 7.72±1.31 g
  absolute pre-contractions to phenylephrine: 8.20 ± 1.26 g
Saphenous veins [8]; [12]
  vasomotor responses to acetylcholine (ACh): significantly greater
  vasomotor responses to bradykinin (BK): significantly greater
Saphenous veins [8]; SV segments ~45 min after 0.13 mg/kg i.v., placebo 19.4±3.3%
  maximal vasorelaxations to ACh: 43.2±4.5%
Saphenous veins [8]; SV segments ~45 min after 0.13 mg/kg i.v., placebo 37.1±3.7%
  maximal vasorelaxations to BK: 51.4±4.2%
[9]
  direct peroxynitrite scavenging effect: strong direct peroxynitrite scavenging effect; also recorded: potent scavenging effect
[9]; at 1 μM
  reduction of measurable peroxynitrite: 75%
Saphenous veins [10]; [13]
  maximum relaxations to Ach: no further increase
  maximum relaxations to BK: no further increase
Saphenous veins [10]; 5-MTHF-incubated vs control vessel segments, data not shown
  vasomotor responses to the endothelium-independent agonist SNP: no differences
Saphenous veins [10]; baseline 7.9±0.8 g, after incubation
  absolute contractions in response to phenylephrine after incubation: remained unchanged
[11]; incubation with 5-MTHF 1 μM, control 0.40±0.06
  vascular 5-MTHF levels: 3.40±0.71 nmol/g tissue
[11]; incubation with 5-MTHF 10 μM
  vascular 5-MTHF levels: 21.3±8.10 nmol/g tissue
[11]; incubation with 5-MTHF 100 μM
  vascular 5-MTHF levels: 57.2±18.9 nmol/g tissue
eNOS
  citrulline production (conversion of radio-labelled arginine to citrulline): 0.20±0.03 %/g tissue

## O=C1O[C@H]([C@@H](O)CO)C(O)=C1O [ascorbic acid, reference compound]
[4]; at 1 μM
  reduction of measurable superoxide: 50%
[4]; even at low concentrations (FIG. 5A)
  superoxide scavenging effect: expected scavenging effect

## O=c1[nH]c(=O)c2[nH]c(=O)[nH]c2[nH]1 [uric acid, reference compound]
[9]
  direct peroxynitrite scavenging effect: comparable
